One assay has as its target T1, Endothelin-1 receptor (Homo sapiens, UniProt P25101).
T1 sequence (P25101 whole entry): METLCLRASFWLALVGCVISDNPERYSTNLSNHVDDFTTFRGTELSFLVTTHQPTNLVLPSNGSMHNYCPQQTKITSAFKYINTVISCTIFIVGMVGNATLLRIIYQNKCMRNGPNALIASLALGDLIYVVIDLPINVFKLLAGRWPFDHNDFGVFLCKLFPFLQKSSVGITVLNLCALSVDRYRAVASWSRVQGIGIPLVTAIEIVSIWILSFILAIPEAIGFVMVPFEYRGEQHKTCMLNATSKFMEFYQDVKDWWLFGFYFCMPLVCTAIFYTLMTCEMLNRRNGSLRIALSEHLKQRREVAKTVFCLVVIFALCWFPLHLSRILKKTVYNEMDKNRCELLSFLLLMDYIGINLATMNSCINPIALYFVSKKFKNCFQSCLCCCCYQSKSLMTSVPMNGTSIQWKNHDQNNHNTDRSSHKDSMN
Description: EDNRA- dependent phosphatidylinositol hydrolysis assay. In kind it is functional.

Assay [1] has as its target 5-hydroxytryptamine receptor 1B (Homo sapiens) (UniProt P28222). The note with it: Compound concentration 10.0 uM.
Assay [2] has as its target 5-hydroxytryptamine receptor 2B (Homo sapiens) (UniProt P41595). The note with it: Compound concentration 10.0 uM.
Assay [3] deals with T2, Muscarinic acetylcholine receptor M4 (Homo sapiens) (UniProt P08173).
T2 sequence (whole entry): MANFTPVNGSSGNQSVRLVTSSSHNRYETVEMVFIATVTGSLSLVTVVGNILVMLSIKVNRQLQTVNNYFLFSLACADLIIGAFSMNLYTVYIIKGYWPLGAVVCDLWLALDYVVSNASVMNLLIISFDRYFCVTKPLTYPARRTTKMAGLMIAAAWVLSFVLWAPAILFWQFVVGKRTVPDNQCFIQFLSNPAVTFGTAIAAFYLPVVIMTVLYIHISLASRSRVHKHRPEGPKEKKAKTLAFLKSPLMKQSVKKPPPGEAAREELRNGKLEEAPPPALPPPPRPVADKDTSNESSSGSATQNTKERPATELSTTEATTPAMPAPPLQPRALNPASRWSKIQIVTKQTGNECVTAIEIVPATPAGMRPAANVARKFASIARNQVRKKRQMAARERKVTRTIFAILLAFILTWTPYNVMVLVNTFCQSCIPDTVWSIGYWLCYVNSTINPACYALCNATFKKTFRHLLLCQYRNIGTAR
As to conditions: Compound concentration 10.0 uM; call rule not given here.

Molecules are shown by their SMILES.

Sequence of 5-hydroxytryptamine receptor 2B (Homo sapiens) (P41595 whole entry): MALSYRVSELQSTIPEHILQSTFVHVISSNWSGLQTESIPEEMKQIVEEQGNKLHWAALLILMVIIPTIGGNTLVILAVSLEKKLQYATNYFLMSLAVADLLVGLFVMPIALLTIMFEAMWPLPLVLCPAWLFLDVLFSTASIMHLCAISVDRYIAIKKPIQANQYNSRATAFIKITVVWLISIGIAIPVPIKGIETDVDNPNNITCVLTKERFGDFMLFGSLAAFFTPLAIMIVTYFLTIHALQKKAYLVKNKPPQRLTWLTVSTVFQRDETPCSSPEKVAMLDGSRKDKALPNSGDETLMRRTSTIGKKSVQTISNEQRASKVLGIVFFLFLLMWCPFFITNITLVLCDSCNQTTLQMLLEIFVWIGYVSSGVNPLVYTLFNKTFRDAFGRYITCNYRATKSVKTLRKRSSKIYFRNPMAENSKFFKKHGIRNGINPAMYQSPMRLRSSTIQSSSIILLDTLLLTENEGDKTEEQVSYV
Sequence of 5-hydroxytryptamine receptor 1B (Homo sapiens) (P28222 whole entry): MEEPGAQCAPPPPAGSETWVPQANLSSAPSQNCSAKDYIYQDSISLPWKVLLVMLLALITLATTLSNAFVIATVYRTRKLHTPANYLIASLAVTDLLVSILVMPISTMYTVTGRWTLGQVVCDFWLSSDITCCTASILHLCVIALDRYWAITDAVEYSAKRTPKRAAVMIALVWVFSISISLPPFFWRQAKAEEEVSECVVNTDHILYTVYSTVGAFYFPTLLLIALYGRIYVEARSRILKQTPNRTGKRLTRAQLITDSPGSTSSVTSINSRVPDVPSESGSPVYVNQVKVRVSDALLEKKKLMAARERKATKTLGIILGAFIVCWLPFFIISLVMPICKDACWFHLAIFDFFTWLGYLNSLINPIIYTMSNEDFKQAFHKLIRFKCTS

`CCCOc1ccc([C@H]2[C@H](C(=O)O)[C@@H](c3ccc4c(c3)OCO4)CN2CC(=O)Nc2c(CC)cccc2CC)cc1` [A-192621]: the 50% inhibitory concentration (IC50) at Endothelin-1 receptor is > 1000 nM (not active). The inhibition in assay [1] was 4.31%; in assay [2], 12.8%; in assay [3], 12.5%.

What is called IC50 is the midpoint of a concentration-inhibition curve. Low values mean greater potency, high ones weaker potency. A word on the inhibition: it is the change of the read-out against control, counted positive when it falls.

Values taken from ChEMBL document CHEMBL4507261, “Data for DCP probe A-192621” (2021).
